Consider 1 molecule from publication PMC5063977 (The Journal of Biological Chemistry, 2016).

The target of assay [1] is T1, RAMP1-CLR (CGRP receptor) (Homo sapiens, UniProt O60894+Q16602).
T1 construct: FLAG; expressed in transfected cells; host or cells: HEK-293 or HEK-293S cells, transient transfection, 1:1 RAMP:CLR
Description: S. cerevisiae growth assay, GPA1/Gαq chimera, RAMP1 + CLR. It is filed as cell-based. The note with it: percentage of yeast strain MMY11 (lacking GPA1); 24-h; mean ± S.E., n = 7. The procedure: FIGURE 7. […] Reporter gene activity was determined following 24-h stimulation. All data are expressed as percentage of the maximum response observed in yeast strain MMY11 and are means ± S.E. of n individual data sets. D, Bar chart showing the efficacy of each ligand for each RAMP-CLR combination at the Gαq chimera determined via application of the operational model of receptor agonism (Ref. [34] and Table 1). Data were determined as statistically different from the cognate ligand for each receptor (***, p < 0.001; ****, p < 0.0001) using one-way ANOVA with Bonferroni's post-test. E, signaling bias plots were calculated as ΔΔ(τ/Ka) values on a logarithmic scale for each ligand and for each chimera G protein for the three individual RAMP-CLR complexes.
General yeast procedures were performed as described previously ([22], [24]). […] Receptor signaling was measured using the yeast growth assay as described previously ([24]). […] A fluorescein signal was detected as an increase in fluorescence (excitation wavelength = 485 nm, emission wavelength = 535 nm) as a measure of growth. Different concentrations of ligand (0.01 nM–100 μM) were assayed using 96-well plates, and fluorescence was detected using a Tecan Infinite M200 microplate reader (Tecan Ultra Evolution, Reading, UK) or a Mithras LB 940 microplate reader (Berthold Technologies, Harpenden, UK) for 20 h. […]

The target of assay [2] is T1, RAMP1-CLR (CGRP receptor). Description: (Ca^2+)i mobilization, HEK-293 cells, RAMP1 + CLR. It counts as cell-based. The note with it: HEK293, percentage of maximal (Ca^2+)i release with 10 μM ionomycin, mean ± S.E., n = 5. The procedure:
HEK-293 cells were transfected with FuGENE 6 (Roche Applied Science) in accordance with the manufacturer's instructions using a 1:3 (w:v) DNA:FuGENE ratio and a 1:1 ratio of RAMP to CLR. […] The transfected cell lines were grown for 24–48 h prior to assaying.
Transfected HEK-293 cells were grown to confluence in black, clear bottomed, 96-well plates. […] Cells were then washed followed by the addition of 100 μl of Ca^2+-free Hanks' balanced salt solution. […] Recordings were obtained every 0.5 s for 120 s. Peak magnitude was calculated using five-point smoothing followed by correction against background fluorescence. The peak was used to generate concentration-response curves and normalized relative to 10 μM ionomycin.
Data analysis for cAMP assays was performed in GraphPad Prism 6.0f (San Diego, CA). […] These values were then used to quantify signaling bias as change in log (τ/Ka) relative to the natural cognate ligand for the respective receptor ([41]). […] Statistical differences were analyzed using one-way ANOVA or Student's t test as appropriate with post hoc Bonferroni's or Dunnett's multiple comparisons, and p < 0.05 was considered significant. […] To quantitate the ligand-dependent response in the yeast system, a strain lacking GPA1 (MMY11), grown in rich medium, was used as a standard ([72]). […]

T1 sequence (Q16602 23-461): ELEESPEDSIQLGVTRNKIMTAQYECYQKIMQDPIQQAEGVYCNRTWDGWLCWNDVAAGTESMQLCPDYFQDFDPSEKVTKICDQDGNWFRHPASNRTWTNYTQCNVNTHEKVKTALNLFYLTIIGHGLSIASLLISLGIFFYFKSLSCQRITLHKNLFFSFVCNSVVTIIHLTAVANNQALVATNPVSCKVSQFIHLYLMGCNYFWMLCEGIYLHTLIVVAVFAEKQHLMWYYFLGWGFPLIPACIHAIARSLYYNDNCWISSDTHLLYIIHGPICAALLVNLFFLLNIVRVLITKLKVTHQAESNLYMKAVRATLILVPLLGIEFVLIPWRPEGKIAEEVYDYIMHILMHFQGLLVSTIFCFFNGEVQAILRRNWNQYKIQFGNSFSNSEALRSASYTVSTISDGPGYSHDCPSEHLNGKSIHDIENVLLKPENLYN
T1 sequence (O60894 27-148): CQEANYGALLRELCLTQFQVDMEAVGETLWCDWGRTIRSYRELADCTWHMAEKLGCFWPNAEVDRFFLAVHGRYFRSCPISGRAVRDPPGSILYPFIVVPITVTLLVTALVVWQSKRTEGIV

As for `CC[C@H](C)[C@H](NC(=O)[C@H](CCC(N)=O)NC(=O)[C@H](Cc1c[nH]cn1)NC(=O)[C@H](C)NC(=O)[C@H](CC(C)C)NC(=O)[C@H](CCCCN)NC(=O)[C@H](CCC(N)=O)NC(=O)[C@@H](NC(=O)[C@@H](NC(=O)[C@@H]1CSSC[C@H](NC(=O)CNC(=O)[C@H](Cc2ccccc2)NC(=O)[C@H](CO)NC(=O)[C@H](CCCNC(=N)N)NC(=O)[C@H](CC(C)C)NC(=O)CNC(=O)[C@H](CCC(N)=O)NC(=O)[C@H](Cc2ccccc2)NC(=O)[C@H](CC(N)=O)NC(=O)[C@H](CC(N)=O)NC(=O)[C@H](CCSC)NC(=O)[C@H](CO)NC(=O)[C@H](CCC(N)=O)NC(=O)[C@H](CCCNC(=N)N)NC(=O)[C@@H](N)Cc2ccc(O)cc2)C(=O)N[C@@H](CCCNC(=N)N)C(=O)N[C@@H](Cc2ccccc2)C(=O)NCC(=O)N[C@@H]([C@@H](C)O)C(=O)N1)[C@@H](C)O)C(C)C)C(=O)N[C@@H](Cc1ccc(O)cc1)C(=O)N[C@@H](CCC(N)=O)C(=O)N[C@@H](Cc1ccccc1)C(=O)N[C@H](C(=O)N[C@@H](CC(=O)O)C(=O)N[C@@H](CCCCN)C(=O)N[C@@H](CC(=O)O)C(=O)N[C@@H](CCCCN)C(=O)N[C@@H](CC(=O)O)C(=O)N[C@@H](CC(N)=O)C(=O)N[C@H](C(=O)N[C@@H](C)C(=O)N1CCC[C@H]1C(=O)N[C@@H](CCCNC(=N)N)C(=O)N[C@@H](CO)C(=O)N[C@@H](CCCCN)C(=O)N[C@H](C(=O)N[C@@H](CO)C(=O)N1CCC[C@H]1C(=O)N[C@@H](CCC(N)=O)C(=O)NCC(=O)N[C@@H](Cc1ccc(O)cc1)C(N)=O)[C@@H](C)CC)C(C)C)[C@@H](C)O` [AM, adrenomedullin], the Emax came out at 14.1 ± 1.2% in assay [1] and 37 ± 3.5% in assay [2].
